Reference: ChEMBL document CHEMBL1201862, “PubChem BioAssay data set” (2004)
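These data come from cells grown in 96-well plates and exposed to compound for 48 hours at five concentrations. GI50: concentration for 50% inhibition of growth.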 Calls of active or inactive are those of the source. Cut-off read from the data, not from the text of the source: active = GI50 up to about 1.1 µM and inactive = higher.

How the values were obtained:
Test in all cases: NCI tumour cell line growth inhibition, 48 h
[1] = system: KM12
[2] = system: NCI/ADR-RES
[3] = system: HCC 2998
[4] = system: SW-620
[5] = system: Malme-3M
[6] = system: PC-3
[7] = system: SK-MEL-2
[8] = system: MOLT-4
[9] = system: K562
[10] = system: SK-MEL-5
[11] = system: OVCAR-4
[12] = system: COLO 205
[13] = system: EKVX
[14] = system: NCI-H460
[15] = system: HL-60
[16] = system: U-251
[17] = system: ACHN
[18] = system: OVCAR-5
[19] = system: DU-145
[20] = system: HT-29
[21] = system: UACC-257
[22] = system: OVCAR-3
[23] = system: CCRF-CEM
[24] = system: SK-OV-3
[25] = system: SNB-75
[26] = system: OVCAR-8
[27] = system: MDA-MB-435
[28] = system: HOP-62
[29] = system: HCT-116
[30] = system: SF-295
[31] = system: SF-539
[32] = system: SNB-19
[33] = system: T47D
[34] = system: LOX IMVI
[35] = system: HCT-15
[36] = system: SN12C
[37] = system: M14
[38] = system: MCF7
[39] = system: MDA-MB-231
[40] = system: UACC-62
[41] = system: CAKI-1
[42] = system: NCI-H522
[43] = system: TK-10
[44] = system: NCI-H23
[45] = system: IGROV-1
[46] = system: Hs-578T
[47] = system: UO-31
[48] = system: BT-549
[49] = system: RXF 393
[50] = system: MDA-N
[51] = system: NCI-H226
[52] = system: HOP-92
[53] = system: SF-268
[54] = system: A498
[55] = system: SK-MEL-28
[56] = system: 786-0
[57] = system: A549
[58] = system: RPMI-8226
[59] = system: SR

SMILES: CCCO[C@@H]1[C@@H](OC(C)=O)[C@@H](OC(C)=O)C(C)(C)/C=C/[C@H](C)C(=O)[C@@]2(OC(C)=O)C[C@@](C)(OC(C)=O)[C@H](OC(C)=O)[C@@H]2[C@H]2OC(=O)CC[C@@]12OC(=O)c1ccccc1
- GI50 [1]: > 25 µM (inactive)
- GI50 [2]: > 25 µM (inactive)
- GI50 [3]: 18.5 µM (inactive)
- GI50 [4]: 23.6 µM (inactive)
- GI50 [5]: 17.5 µM (inactive)
- GI50 [6]: 20.4 µM (inactive)
- GI50 [7]: > 25 µM (inactive)
- GI50 [8]: 5.13 µM (inactive)
- GI50 [9]: 4.63 µM (inactive)
- GI50 [10]: 19.1 µM (inactive)
- GI50 [11]: > 25 µM (inactive)
- GI50 [12]: 6.97 µM (inactive)
- GI50 [13]: > 25 µM (inactive)
- GI50 [14]: 6.73 µM (inactive)
- GI50 [15]: 2.64 µM (inactive)
- GI50 [16]: > 25 µM (inactive)
- GI50 [17]: > 25 µM (inactive)
- GI50 [18]: > 25 µM (inactive)
- GI50 [19]: > 25 µM (inactive)
- GI50 [20]: 5.18 µM (inactive)
- GI50 [21]: > 25 µM (inactive)
- GI50 [22]: > 25 µM (inactive)
- GI50 [23]: 4.85 µM (inactive)
- GI50 [24]: > 25 µM (inactive)
- GI50 [25]: > 25 µM (inactive)
- GI50 [26]: > 25 µM (inactive)
- GI50 [27]: 15.2 µM (inactive)
- GI50 [28]: > 25 µM (inactive)
- GI50 [29]: 6.97 µM (inactive)
- GI50 [30]: 10.4 µM (inactive)
- GI50 [31]: > 25 µM (inactive)
- GI50 [32]: > 25 µM (inactive)
- GI50 [33]: > 25 µM (inactive)
- GI50 [34]: > 25 µM (inactive)
- GI50 [35]: > 25 µM
- GI50 [36]: > 25 µM (inactive)
- GI50 [37]: > 25 µM (inactive)
- GI50 [38]: 23.6 µM (inactive)
- GI50 [39]: > 25 µM (inactive)
- GI50 [40]: > 25 µM (inactive)
- GI50 [41]: 17.7 µM (inactive)
- GI50 [42]: 0.774 µM (active)
- GI50 [43]: > 25 µM (inactive)
- GI50 [44]: > 25 µM (inactive)
- GI50 [45]: > 25 µM (inactive)
- GI50 [46]: 12.1 µM (inactive)
- GI50 [47]: > 25 µM (inactive)
- GI50 [48]: 22.9 µM (inactive)
- GI50 [49]: > 25 µM (inactive)
- GI50 [50]: 14.9 µM (inactive)
- GI50 [51]: > 25 µM (inactive)
- GI50 [52]: > 25 µM (inactive)
- GI50 [53]: > 25 µM (inactive)

SMILES: O=C(O)C/C(=C\c1ccccc1)C(=O)O
- GI50 [1]: > 100 µM (inactive)
- GI50 [2]: > 100 µM (inactive)
- GI50 [3]: > 100 µM (inactive)
- GI50 [4]: > 100 µM (inactive)
- GI50 [5]: > 100 µM (inactive)
- GI50 [6]: > 100 µM (inactive)
- GI50 [7]: > 100 µM (inactive)
- GI50 [8]: > 100 µM (inactive)
- GI50 [9]: 31.7 µM (inactive)
- GI50 [10]: > 100 µM (inactive)
- GI50 [11]: > 100 µM (inactive)
- GI50 [12]: > 100 µM (inactive)
- GI50 [13]: > 100 µM (inactive)
- GI50 [14]: > 100 µM (inactive)
- GI50 [15]: > 100 µM (inactive)
- GI50 [16]: > 100 µM (inactive)
- GI50 [17]: > 100 µM (inactive)
- GI50 [18]: > 100 µM (inactive)
- GI50 [54]: > 100 µM (inactive)
- GI50 [19]: > 100 µM (inactive)
- GI50 [55]: > 100 µM (inactive)
- GI50 [20]: > 100 µM (inactive)
- GI50 [21]: > 100 µM (inactive)
- GI50 [22]: > 100 µM (inactive)
- GI50 [23]: > 100 µM (inactive)
- GI50 [24]: > 100 µM (inactive)
- GI50 [25]: > 100 µM (inactive)
- GI50 [26]: > 100 µM (inactive)
- GI50 [27]: > 100 µM (inactive)
- GI50 [28]: > 100 µM (inactive)
- GI50 [29]: > 100 µM (inactive)
- GI50 [30]: > 100 µM (inactive)
- GI50 [31]: > 100 µM (inactive)
- GI50 [32]: > 100 µM (inactive)
- GI50 [33]: > 100 µM (inactive)
- GI50 [34]: > 100 µM (inactive)
- GI50 [35]: > 100 µM
- GI50 [36]: > 100 µM (inactive)
- GI50 [37]: > 100 µM (inactive)
- GI50 [56]: > 100 µM (inactive)
- GI50 [38]: > 100 µM (inactive)
- GI50 [57]: > 100 µM (inactive)
- GI50 [39]: > 100 µM (inactive)
- GI50 [40]: > 100 µM (inactive)
- GI50 [41]: > 100 µM (inactive)
- GI50 [42]: > 100 µM (inactive)
- GI50 [43]: > 100 µM (inactive)
- GI50 [44]: > 100 µM (inactive)
- GI50 [45]: > 100 µM (inactive)
- GI50 [46]: > 100 µM (inactive)
- GI50 [47]: > 100 µM (inactive)
- GI50 [48]: > 100 µM (inactive)
- GI50 [49]: > 100 µM (inactive)
- GI50 [50]: > 100 µM (inactive)
- GI50 [51]: > 100 µM (inactive)
- GI50 [52]: > 100 µM (inactive)
- GI50 [58]: > 100 µM (inactive)
- GI50 [53]: > 100 µM (inactive)

SMILES: COc1ccc(OC)c(-c2cn3c(n2)sc2ccccc23)c1
- GI50 [1]: > 100 µM (inactive)
- GI50 [2]: > 100 µM (inactive)
- GI50 [4]: > 100 µM (inactive)
- GI50 [5]: > 100 µM (inactive)
- GI50 [6]: 30.6 µM (inactive)
- GI50 [7]: > 100 µM (inactive)
- GI50 [8]: > 100 µM (inactive)
- GI50 [9]: > 100 µM (inactive)
- GI50 [10]: 65 µM (inactive)
- GI50 [11]: > 100 µM (inactive)
- GI50 [12]: > 100 µM (inactive)
- GI50 [13]: > 100 µM (inactive)
- GI50 [59]: > 100 µM (inactive)
- GI50 [14]: > 100 µM (inactive)
- GI50 [15]: > 100 µM (inactive)
- GI50 [16]: > 100 µM (inactive)
- GI50 [17]: > 100 µM (inactive)
- GI50 [18]: > 100 µM (inactive)
- GI50 [19]: > 100 µM (inactive)
- GI50 [20]: 8.26 µM (inactive)
- GI50 [21]: > 100 µM (inactive)
- GI50 [22]: > 100 µM (inactive)
- GI50 [23]: > 100 µM (inactive)
- GI50 [24]: > 100 µM (inactive)
- GI50 [25]: > 100 µM (inactive)
- GI50 [26]: 94.8 µM (inactive)
- GI50 [27]: > 100 µM (inactive)
- GI50 [28]: > 100 µM (inactive)
- GI50 [29]: > 100 µM (inactive)
- GI50 [30]: 95.3 µM (inactive)
- GI50 [31]: > 100 µM (inactive)
- GI50 [32]: > 100 µM (inactive)
- GI50 [33]: > 100 µM (inactive)
- GI50 [34]: > 100 µM (inactive)
- GI50 [35]: > 100 µM
- GI50 [36]: > 100 µM (inactive)
- GI50 [56]: 58.5 µM (inactive)
- GI50 [38]: 3.44 µM (inactive)
- GI50 [57]: > 100 µM (inactive)
- GI50 [39]: > 100 µM (inactive)
- GI50 [40]: 64.1 µM (inactive)
- GI50 [41]: > 100 µM (inactive)
- GI50 [42]: > 100 µM (inactive)
- GI50 [43]: > 100 µM (inactive)
- GI50 [44]: > 100 µM (inactive)
- GI50 [45]: > 100 µM (inactive)
- GI50 [46]: 39.7 µM (inactive)
- GI50 [47]: > 100 µM (inactive)
- GI50 [48]: > 100 µM (inactive)
- GI50 [49]: > 100 µM (inactive)
- GI50 [50]: > 100 µM (inactive)
- GI50 [51]: > 100 µM (inactive)
- GI50 [52]: 15.8 µM (inactive)
- GI50 [58]: > 100 µM (inactive)
- GI50 [53]: > 100 µM (inactive)
